Measurements taken from PubChem BioAssay AID2060487 (Molecular Pharmacology Branch, DTP, NCI, 2025).
Each block holds one compound with its values, some of them ahead of it.

Test system: 997537-175-T-J1-PDC complex spheroid viability
Test: Anticancer human tumor 997537-175-T-J1-PDC patient-derived colon adenocarcinoma cell line growth inhibition [GQUAD]
Details: for IC50: curve of first compound; for viability, T/C: stronger effect = lower value
How it was run: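 Multi-cell-type spheroids of tumor cells with HUVEC and mesenchymal stem cells, treated with drug combinations. Concentrations descend in half-log steps from near clinical Cmax, or from 10 microM where Cmax is unknown; viability read-out.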

[1] = second compound 0.0316 µM, first compound 0.0316 µM
[2] = second compound 0.0316 µM, first compound 0.316 µM
[3] = second compound 0.1 µM, first compound 0.0316 µM
[4] = second compound 0.1 µM, first compound 0.316 µM
[5] = second compound 0.316 µM, first compound 0.0316 µM
[6] = second compound 0.316 µM, first compound 0.316 µM
[7] = second compound 1 µM, first compound 0.0316 µM
[8] = second compound 1 µM, first compound 0.316 µM
[9] = second compound 3.16 µM, first compound 0.0316 µM
[10] = second compound 3.16 µM, first compound 0.316 µM
[11] = second compound 10 µM, first compound 0.0316 µM
[12] = second compound 10 µM, first compound 0.316 µM
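Further: spheroids exposed to the agents for 7 days.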
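Wherever viability, T/C is given: 100% = DMSO vehicle control viability.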

Compound: CC(C)n1c(=O)n(C)c2cnc3cc(F)c(-c4ccc(OCCCN5CCCCC5)nc4)cc3c21 + Cc1[nH]c2ccc(F)cc2c1-c1nc2c3cccnc3c3ncccc3c2[nH]1
IC50 (second compound 0.0316 µM): > 10000 nM
IC50 (second compound 0.1 µM): > 10000 nM
IC50 (second compound 0.316 µM): > 10000 nM
IC50 (second compound 1 µM): > 10000 nM
IC50 (second compound 3.16 µM): > 10000 nM
IC50 (second compound 10 µM): > 10000 nM
viability, T/C [1]: 117%
viability, T/C (second compound 0.0316 µM, first compound 0.1 µM): 104%
viability, T/C [2]: 112%
viability, T/C (second compound 0.0316 µM, first compound 1 µM): 98.2%
viability, T/C (second compound 0.0316 µM, first compound 3.16 µM): 113%
viability, T/C (second compound 0.0316 µM, first compound 10 µM): 106%
viability, T/C [3]: 121%
viability, T/C (second compound 0.1 µM, first compound 0.1 µM): 97.6%
viability, T/C [4]: 97.6%
viability, T/C (second compound 0.1 µM, first compound 1 µM): 95.6%
viability, T/C (second compound 0.1 µM, first compound 3.16 µM): 108%
viability, T/C (second compound 0.1 µM, first compound 10 µM): 99.9%
viability, T/C [5]: 94.2%
viability, T/C (second compound 0.316 µM, first compound 0.1 µM): 103%
viability, T/C [6]: 88.8%
viability, T/C (second compound 0.316 µM, first compound 1 µM): 77.9%
viability, T/C (second compound 0.316 µM, first compound 3.16 µM): 116%
viability, T/C (second compound 0.316 µM, first compound 10 µM): 84%
viability, T/C [7]: 86.4%
viability, T/C (second compound 1 µM, first compound 0.1 µM): 109%
viability, T/C [8]: 91.1%
viability, T/C (second compound 1 µM, first compound 1 µM): 107%
viability, T/C (second compound 1 µM, first compound 3.16 µM): 112%
viability, T/C (second compound 1 µM, first compound 10 µM): 98.8%
viability, T/C [9]: 89.3%
viability, T/C (second compound 3.16 µM, first compound 0.1 µM): 100%
viability, T/C [10]: 100%
viability, T/C (second compound 3.16 µM, first compound 1 µM): 93.2%
viability, T/C (second compound 3.16 µM, first compound 3.16 µM): 98.2%
viability, T/C (second compound 3.16 µM, first compound 10 µM): 90.5%
viability, T/C [11]: 81.5%
viability, T/C (second compound 10 µM, first compound 0.1 µM): 79.9%
viability, T/C [12]: 95.7%
viability, T/C (second compound 10 µM, first compound 1 µM): 79.9%
viability, T/C (second compound 10 µM, first compound 3.16 µM): 88.9%
viability, T/C (second compound 10 µM, first compound 10 µM): 72.5%

IC50 (second compound 0.0316 µM): 8.07 nM
IC50 (second compound 0.1 µM): 11.8 nM
IC50 (second compound 0.316 µM): 11.4 nM
IC50 (second compound 1 µM): 7.52 nM
IC50 (second compound 3.16 µM): 13.3 nM
IC50 (second compound 10 µM): 12.7 nM
Compound: CCc1c2c(nc3ccc(O)cc13)-c1cc3c(c(=O)n1C2)COC(=O)[C@]3(O)CC + Cc1cnc(CNC(=O)c2c(=O)c3ccc(N4CCCN(C)CC4)nc3n3c2sc2ccccc23)cn1
viability, T/C (second compound 0.0316 µM, first compound 0.000999 µM): 101%
viability, T/C (second compound 0.0316 µM, first compound 0.00316 µM): 70.3%
viability, T/C (second compound 0.0316 µM, first compound 0.00999 µM): 50.2%
viability, T/C [1]: 17.3%
viability, T/C (second compound 0.0316 µM, first compound 0.0999 µM): 6.2%
viability, T/C [2]: 2.76%
viability, T/C (second compound 0.1 µM, first compound 0.000999 µM): 95.2%
viability, T/C (second compound 0.1 µM, first compound 0.00316 µM): 85.8%
viability, T/C (second compound 0.1 µM, first compound 0.00999 µM): 57%
viability, T/C [3]: 13.7%
viability, T/C (second compound 0.1 µM, first compound 0.0999 µM): 8.95%
viability, T/C [4]: 3.1%
viability, T/C (second compound 0.316 µM, first compound 0.000999 µM): 101%
viability, T/C (second compound 0.316 µM, first compound 0.00316 µM): 73.4%
viability, T/C (second compound 0.316 µM, first compound 0.00999 µM): 63.1%
viability, T/C [5]: 15.6%
viability, T/C (second compound 0.316 µM, first compound 0.0999 µM): 10%
viability, T/C [6]: 3.09%
viability, T/C (second compound 1 µM, first compound 0.000999 µM): 109%
viability, T/C (second compound 1 µM, first compound 0.00316 µM): 69.2%
viability, T/C (second compound 1 µM, first compound 0.00999 µM): 42.1%
viability, T/C [7]: 28.1%
viability, T/C (second compound 1 µM, first compound 0.0999 µM): 9.78%
viability, T/C [8]: 2.05%
viability, T/C (second compound 3.16 µM, first compound 0.000999 µM): 91.8%
viability, T/C (second compound 3.16 µM, first compound 0.00316 µM): 80.2%
viability, T/C (second compound 3.16 µM, first compound 0.00999 µM): 54.9%
viability, T/C [9]: 32.5%
viability, T/C (second compound 3.16 µM, first compound 0.0999 µM): 8.3%
viability, T/C [10]: 2.04%
viability, T/C (second compound 10 µM, first compound 0.000999 µM): 81.3%
viability, T/C (second compound 10 µM, first compound 0.00316 µM): 71.1%
viability, T/C (second compound 10 µM, first compound 0.00999 µM): 59.7%
viability, T/C [11]: 19.4%
viability, T/C (second compound 10 µM, first compound 0.0999 µM): 7.8%
viability, T/C [12]: 1.03%
